Measured values as given in ChEMBL document CHEMBL1150400, “Lycoparins A-C, new alkaloids from Lycopodium casuarinoides inhibiting acetylcholinesterase” (Bioorg Med Chem, 2008).

Each compound was assayed against T1, Acetylcholinesterase (Bos taurus, UniProt P23795) (assay: Inhibition of acetylcholinesterase from bovine erythrocyte).
T1 sequence (P23795 whole entry): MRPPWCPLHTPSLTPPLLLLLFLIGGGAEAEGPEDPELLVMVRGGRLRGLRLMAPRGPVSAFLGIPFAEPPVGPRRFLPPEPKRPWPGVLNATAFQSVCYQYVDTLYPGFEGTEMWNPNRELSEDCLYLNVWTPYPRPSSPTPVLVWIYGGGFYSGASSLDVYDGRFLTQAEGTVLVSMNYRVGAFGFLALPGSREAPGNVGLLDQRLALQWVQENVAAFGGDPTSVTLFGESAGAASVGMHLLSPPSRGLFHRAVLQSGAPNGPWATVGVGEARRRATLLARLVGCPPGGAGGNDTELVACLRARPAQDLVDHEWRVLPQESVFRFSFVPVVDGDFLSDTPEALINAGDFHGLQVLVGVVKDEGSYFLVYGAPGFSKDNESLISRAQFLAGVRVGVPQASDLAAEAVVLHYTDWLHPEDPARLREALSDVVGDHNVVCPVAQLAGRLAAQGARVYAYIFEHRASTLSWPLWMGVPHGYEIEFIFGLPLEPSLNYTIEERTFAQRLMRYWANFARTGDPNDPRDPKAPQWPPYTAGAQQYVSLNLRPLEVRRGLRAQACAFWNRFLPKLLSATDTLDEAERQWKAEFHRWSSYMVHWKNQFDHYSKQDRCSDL

| Compound | IC50 |
| --- | --- |
| C=C[C@@H]1[C@H]2C=C(C(=O)O)C[C@]1(N(C)C)c1ccc(=O)[nH]c1C2 [LYCOPARIN A] | > 200 µM |
| C=C[C@@H]1[C@H]2C=C(C(=O)O)C[C@]1(NC)c1ccc(=O)[nH]c1C2 [LYCOPARIN B] | > 200 µM |
| C=C[C@@H]1[C@H]2C=C(CO)C[C@]1(N)c1ccc(=O)[nH]c1C2 [LYCOPARIN C] | 25 µM |
